Data: US9895321B2, “Vaccines, methods of administering vaccines, methods and products for treating and/or delaying onset of dysplastic lesions, and wafers for oral administration” (AKTIV-DRY LLC, priority 2010, dated 2018)

Tests used:
[1] = assay type: physicochemical
From the text: In certain embodiments of the invention, the dry powder compositions may comprise myo-inositol (cis-1,2,3,5-trans-4,6-cyclohexanehexyl). Dry powder compositions comprising myo-inositol are disclosed in the Sievers et al U.S. Patent Application No. 2008/0035143 A1, incorporated herein in its entirety, although other myo-inositol dry powder compositions, including those generally and/or specifically disclosed herein are also suitable for use in embodiments of the present invention. Dry powder compositions comprising myo-inositol may optionally further include one or more of amino acids, for example, arginine, alanine, histidine, leucine, and/or methionine, surfactants, for example, palmitic acid, stearic acid, Tween 20, Tween 80, and/or Pluronic F68, stabilizers, buffers, for example, tricine, sodium or potassium phosphate, sodium acetate, and/or sodium citrate, metal chelating agents, for example EDTA and/or DTPA, gelatin, albumin, or the like. In one specific embodiment, myo-inositol and leucine are employed in a 98.5:1.5 weight ratio. Advantageously, myo-inositol dry powder compositions containing one or more additional components are provided using the CAN-BD process. It has been discovered that when pure myo-inositol is processed by the CAN-BD process at a temperature of about 50° C., a crystal polymorph which is different from the common crystal polymorph of native myo-inositol forms. This polymorph has an exothermic transition with onset of 110-130° C. and appears to be thermally stable at room temperature for only short periods of time (less than 2 weeks), but remains for longer periods of time when stored at temperatures of 2-8° C. (for at least 3 months and up to 5 months), and is removed by annealing at 115° C. or above. The moisture content of this new polymorph is very low (0.1% water) and identical to the moisture content of native myo-inositol. The X-ray diffraction pattern of this polymorph differs from those of native myo-inositol and a previously disclosed myo-inositol dihydrate (Bonnet 2006). […]

P13K = details: conclusion of Gustafson et al; cited from earlier work
dysplastic lesions = details: three months, cited from earlier work

SMILES | period of thermal stability [1] | moisture content ([1]; new polymorph, identical to native myo-inositol) [% water] | period for which the polymorph remains ([1]; stored at 2-8° C.) | P13K inhibition (P13K) | maximum tolerated dose (dysplastic lesions; oral administration to the gastrointestinal tract) [grams per day] | regression in dysplastic lesions (dysplastic lesions; oral, mild to moderate airway dysplasia)
O[C@H]1[C@H](O)[C@@H](O)[C@H](O)[C@@H](O)[C@H]1O [crystal polymorph, myo-inositol] | less than 2 weeks | 0.1 | at least 3 months |  |  | 
O[C@H]1[C@H](O)[C@@H](O)[C@H](O)[C@@H](O)[C@H]1O [myo-inositol, cis-1,2,3,5-trans-4,6-cyclohexanehexyl] |  |  |  | P13K inhibitor | 18 | significant regression
